Source: patent US20120184536A1, “COMPOSITIONS COMPRISING SPECIFIC UGT INHIBITORS AND METHODS OF USE THEREOF” (The Board of Trustees of the University of Arkansas, priority 2009, published 2012)
Like-named read-outs stand apart in the source and are kept apart here.

Legend:
UGT1A10 [1] = target: T1, UGT1A10 (Homo sapiens, UniProt Q9HAW8); assay: Ki assays / kinetics and inhibition type, UGT1A10 (Example 1); settings: for Inhibition Type (UDP-GlcUA): UDP-GlcUA varied
T1 sequence (Q9HAW8 26-530): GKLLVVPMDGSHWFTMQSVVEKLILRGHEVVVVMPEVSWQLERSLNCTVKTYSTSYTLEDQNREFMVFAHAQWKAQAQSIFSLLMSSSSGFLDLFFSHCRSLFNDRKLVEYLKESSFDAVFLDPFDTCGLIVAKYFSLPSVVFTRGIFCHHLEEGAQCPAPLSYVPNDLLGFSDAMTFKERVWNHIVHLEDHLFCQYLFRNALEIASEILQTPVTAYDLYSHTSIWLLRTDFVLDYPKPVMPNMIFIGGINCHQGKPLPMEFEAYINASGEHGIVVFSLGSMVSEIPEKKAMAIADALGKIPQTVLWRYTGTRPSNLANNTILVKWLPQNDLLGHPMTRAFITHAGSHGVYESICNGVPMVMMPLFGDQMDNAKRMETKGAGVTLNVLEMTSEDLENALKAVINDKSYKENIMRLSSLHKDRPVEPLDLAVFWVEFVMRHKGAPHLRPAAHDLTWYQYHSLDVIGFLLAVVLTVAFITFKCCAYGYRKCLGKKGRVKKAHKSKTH
Experimental: (§1) Recombinant UGT Isoform Incubations—Recombinant human UGT2B7 was produced in HEK239 cells as previously described (6). UGT1A10 was produced as a His-tagged protein in baculovirus-infected Sf9 insect cells as previously described (7, 8). […] For inhibition assays, recombinant UGT membrane protein was incubated in reaction buffer with substrate, inhibitor, and co-substrate as previously described (6, 9).
(§2) Ki assays—UGT2B7 or 1A10 were incubated with a range of at least four different concentrations of inhibitor using varying concentrations of substrate (Ki(substrate)) with a fixed saturating concentration of cosubstrate or with varying concentrations of co-substrate (Ki(UDP-GlcUA)) and a fixed saturating concentration of substrate (FIG. 4).
(§3) The results of these experiments were analyzed and apparent kinetic and inhibition parameters were determined using Prism 4 software (GraphPad, San Diego, Calif.) and DynaFit (BioKin, Watertown, Mass.). TLC and HPLC Analysis—For inhibition assays using all substrates other than 7-OH-warfarin, aliquots (60 μl) of each incubation were analyzed using thin layer chromatography (TLC) as previously described (3). For inhibition assays using 7-OH-warfarin as a substrate, samples were analyzed using HPLC as described previously (10). Primary standards for the 7-OH-warfarin glucuronide were not available; therefore, product concentrations were estimated using the external standard response for the 7-OH-warfarin substrate.

UGT1A10 [2] = target: T1, UGT1A10; assay: IC50 assays, inhibition of UGT1A10 glucuronidation (Example 1); format: biochemical; design: His; made in house; host or cells: baculovirus-infected Sf9 insect cells
Text: Synthesis of inhibitors was described previously (2).

UGT2B7 [3] = target: T2, UGT2B7 (Homo sapiens, UniProt P16662); assay: IC50 assays, inhibition of UGT2B7 glucuronidation (Example 1)
T2 sequence (P16662 24-529): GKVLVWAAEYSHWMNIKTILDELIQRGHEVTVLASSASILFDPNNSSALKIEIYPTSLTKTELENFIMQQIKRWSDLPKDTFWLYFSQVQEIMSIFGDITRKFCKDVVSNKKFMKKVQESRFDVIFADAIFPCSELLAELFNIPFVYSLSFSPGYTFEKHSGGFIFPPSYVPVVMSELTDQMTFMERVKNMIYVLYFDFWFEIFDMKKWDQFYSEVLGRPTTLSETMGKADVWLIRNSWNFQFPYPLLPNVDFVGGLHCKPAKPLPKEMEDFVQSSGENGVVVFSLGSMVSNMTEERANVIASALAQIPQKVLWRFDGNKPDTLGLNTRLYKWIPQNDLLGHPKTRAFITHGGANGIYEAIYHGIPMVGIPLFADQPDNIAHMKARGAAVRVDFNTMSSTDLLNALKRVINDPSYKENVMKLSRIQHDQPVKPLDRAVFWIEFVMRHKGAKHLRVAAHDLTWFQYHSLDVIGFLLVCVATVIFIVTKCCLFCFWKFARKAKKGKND
Experimental: Recombinant UGT Isoform Incubations—Recombinant human UGT2B7 was produced in HEK239 cells as previously described (6). […] For inhibition assays, recombinant UGT membrane protein was incubated in reaction buffer with substrate, inhibitor, and co-substrate as previously described (6, 9).
IC50 assays—UGT2B7 or 1A10 were incubated with fixed concentrations of each substrate and co-substrate and increasing concentrations of inhibitor.
as §3

UGT2B7 [4] = target: T2, UGT2B7; assay: Ki assays / kinetics and inhibition type, UGT2B7 (Example 1); settings: UGT2B7
Experimental: as §1, §2, §3

UGT1A10 [5] = target: T1, UGT1A10; assay: Ki assays / kinetics and inhibition type, UGT1A10 (Example 2); settings: UGT1A10, Example 2; for Inhibition Type (UDP-GlcUA): UDP-GlcUA varied
Experimental: Recombinant UGT Isoform Incubations—Recombinant human UGT1A10 and it mutants were produced in baculovirus-infected insect cells as previously described (6, 7). Synthesis of inhibitors was described previously (2). For inhibition assays, UGT recombinant membrane protein (5 μg) was incubated in reaction buffer ([…] Tris-HCl (pH 7.4)/5 mM MgCl2/5 mM saccharolactone) and 2% DMSO with substrate, inhibitor and co-substrate, UDP-GlcUA, in a total volume of 30 μl. Substrates were added in DMSO, and controls were run with each assay. No additional detergents or other activators were used in the incubations. Reactions were started by the addition of co-substrate and incubated at 37° C. (90 min for 8-hydroxywarfarin; 30 min for 4-MU; 30 min for E2). […] Reactions were stopped by addition of 40 μl of ethanol, and all incubations were performed in duplicate.
TLC Analysis—For inhibition assays using 4-MU, E2, and 8-OH warfarin as substrates, aliquots (60 μl) of each sample were analyzed using thin layer chromatography (TLC) as described previously (3).
Each sample was centrifuged at 14,000 rpm for 8 min to spin down the protein, and 60 μl of the supernatant was analyzed by HPLC as described previously (8).

UGT1A10 [6] = target: T1, UGT1A10; format: biochemical; design: His; made in house; host or cells: baculovirus-infected Sf9 insect cells

CCCCCCCCCC(=O)NC(COC(=O)NS(=O)(=O)OCC1OC(n2ccc(=O)[nH]c2=O)C(O)C1O)Cc1ccccc1 (stereo not drawn) [PP55B]
Inhibition Type (Substrate) (UGT1A10 [1]; 4-MU varied): noncompetitive and Non-
Inhibition Type (Substrate) (UGT1A10 [1]; 7-OH warfarin varied): Competitive
Inhibition Type (Substrate) (UGT1A10 [1]; 8-OH warfarin varied): Mixed
Inhibition Type (Substrate) (UGT1A10 [1]; E2 varied): Mixed
Inhibition Type (UDP-GlcUA) (UGT1A10 [1]; 4-MU): Competitive
Inhibition Type (UDP-GlcUA) (UGT1A10 [1]; 7-OH warfarin): Competitive
Inhibition Type (UDP-GlcUA) (UGT1A10 [1]; 8-OH warfarin): Competitive
Inhibition Type (UDP-GlcUA) (UGT1A10 [1]; E2): Mixed
Ki (UGT1A10 [1]; read-out: Kiapp (Substrate), 4-MU varied): 96 µM
Ki (UGT1A10 [1]; read-out: Kiapp (Substrate), 7-OH warfarin varied): 8.5 µM
Ki (UGT1A10 [1]; read-out: Kiapp (Substrate), 8-OH warfarin varied): 27 µM
Ki (UGT1A10 [1]; read-out: Kiapp (Substrate), E2 varied): 200 µM
Ki (UGT1A10 [1]; read-out: Kiapp (UDP-GlcUA), UDP-GlcUA varied, 4-MU): 5.7 µM
Ki (UGT1A10 [1]; read-out: Kiapp (UDP-GlcUA), UDP-GlcUA varied, 7-OH warfarin): 4.1 µM
Ki (UGT1A10 [1]; read-out: Kiapp (UDP-GlcUA), UDP-GlcUA varied, 8-OH warfarin): 26 µM
Ki (UGT1A10 [1]; read-out: Kiapp (UDP-GlcUA), UDP-GlcUA varied, E2): 6.9 µM
Ki (UGT1A10 [1]; read-out: Ki′app (Substrate), 8-OH warfarin varied): 136 µM
Ki (UGT1A10 [1]; read-out: Ki′app (Substrate), E2 varied): 43 µM
Ki (UGT1A10 [1]; read-out: Ki′app (UDP-GlcUA), UDP-GlcUA varied, E2): 23 µM
IC50 (UGT1A10 [2]; 4-MU, read-out: IC50 (Substrate)): 8 ± 1 µM
IC50 (UGT1A10 [2]; 7-OH warfarin, read-out: IC50 (Substrate)): 11 ± 2 µM
IC50 (UGT1A10 [2]; 8-OH warfarin, read-out: IC50 (Substrate)): 35 ± 4 µM
IC50 (UGT1A10 [2]; E2, estimation, some activation at low concentrations, read-out: IC50 (Substrate)): ~200 µM
IC50 (UGT1A10 [2]; co-substrate ~2 x Km, 4-MU in excess, read-out: IC50 (UDP-GlcUA)): 15 ± 2 µM
IC50 (UGT1A10 [2]; co-substrate ~2 x Km, 7-OH warfarin in excess, read-out: IC50 (UDP-GlcUA)): 4.9 ± 0.2 µM
IC50 (UGT1A10 [2]; co-substrate ~2 x Km, 8-OH warfarin in excess, read-out: IC50 (UDP-GlcUA)): 14 ± 1 µM
IC50 (UGT1A10 [2]; co-substrate ~2 x Km, E2 in excess, read-out: IC50 (UDP-GlcUA)): 39 ± 11 µM
IC50 (UGT2B7 [3]; read-out: IC50 (Substrate), linoleic acid ~2 x Km, co-substrate in >5 fold excess): 14 µM
IC50 (UGT2B7 [3]; read-out: IC50 (Substrate), p-nitrophenol (pNP) ~2 x Km, co-substrate in >5 fold excess): 75 ± 10 µM
Inhibition Type (UDP-GlcUA) (UGT2B7 [4]; UDP-GlcUA varied, androsterone): Mixed
Inhibition Type (UDP-GlcUA) (UGT2B7 [4]; UDP-GlcUA varied, linoleic acid): Competitive
Inhibition Type (UDP-GlcUA) (UGT2B7 [4]; UDP-GlcUA varied, p-nitrophenol): Mixed
Inhibition Type (Substrate) (UGT2B7 [4]; androsterone varied): Mixed
Inhibition Type (Substrate) (UGT2B7 [4]; linoleic acid varied): Competitive
Inhibition Type (Substrate) (UGT2B7 [4]; p-nitrophenol varied): Competitive
Ki (UGT2B7 [4]; read-out: Kiapp (Substrate), linoleic acid varied): 4.2 µM
Ki (UGT2B7 [4]; read-out: Kiapp (Substrate), p-nitrophenol varied): 7.6 µM
Ki (UGT2B7 [4]; read-out: Kiapp (UDP-GlcUA), UDP-GlcUA varied, linoleic acid): 2.5 µM
Ki (UGT2B7 [4]; read-out: Kiapp (UDP-GlcUA), UDP-GlcUA varied, p-nitrophenol): 2.1 µM
Ki (UGT2B7 [4]; read-out: Ki′app (UDP-GlcUA), UDP-GlcUA varied, p-nitrophenol): 85 µM
Inhibition Type (Substrate) (UGT1A10 [5]; 4-MU varied): Competitive
Inhibition Type (Substrate) (UGT1A10 [5]; 7-OH warfarin varied): Competitive
Inhibition Type (Substrate) (UGT1A10 [5]; 8-OH warfarin varied): Competitive
Inhibition Type (UDP-GlcUA) (UGT1A10 [5]; 4-MU): Competitive
Inhibition Type (UDP-GlcUA) (UGT1A10 [5]; 7-OH warfarin 3 mM): Mixed
Inhibition Type (UDP-GlcUA) (UGT1A10 [5]; 8-OH warfarin): Competitive
Inhibition Type (UDP-GlcUA) (UGT1A10 [5]; E2 1 mM): Mixed
extent of inhibition of UGT1A10 activity toward 7-OH warfarin (UGT1A10 [6]): did not fully inhibition
